{"source": "paper PMC10862543", "about": "“Naphthalene Diimide–Tetraazacycloalkane Conjugates Are G-Quadruplex-Based HIV-1 Inhibitors with a Dual Mode of Action” (ACS Infectious Diseases, 2024)", "key": {"TZM-bl cells": {"tested_on": "TZM-bl cells", "assay": "MTT cytotoxicity assay on uninfected cells", "assay_type": "cell-based", "conditions": "for CC50: uninfected TZM-bl", "method": "(§1) We used TZM-bl cells that are HeLa cells stably expressing large amounts of CD4, CXCR4, and CCR5, thus being highly susceptible to HIV-infection, with integrated luciferase and beta-galactosidase genes under the control of the HIV-1 promoter. We first tested NDI–tetraazacycloalkane conjugates’ cytotoxicity on TZM-bl cells by treating them with increasing amounts of compounds (0.097–25 μM) for 24 and 48 h.\n(§2) Cytotoxicity of tested compounds was performed in parallel to antiviral and reporter assays by MTT. […] The selectivity index (SI) is the relative effectiveness of the tested compound in inhibiting viral replication compared to inducing cell death (CC50 value/IC50 value). […]. IC50 and CC50 values were calculated by using a nonlinear regression model."}, "HIV-1 X4 strain (NL4–3)": {"tested_on": "HIV-1 X4 strain (NL4–3)", "assay": "Time of addition (TOA) assay, X4 strain", "assay_type": "cell-based", "protocol": "This assay indicates how long the addition of a compound can be postponed before it loses its antiviral activity: comparing the test compounds with reference drugs, whose mechanism is well characterized in the time frame of virus replication, it is possible to determine which viral steps are affected by the test compounds.[56]\nVirus production was monitored at 25 h post infection, i.e., at the end of a single round of HIV-1 replication, by exploiting the LTR-driven luciferase reporter system.\n25 h post infection HIV-1 production was assessed following the LTR-luciferase signal using the britelite plus Reporter Gene Assay System. The activity of the test compounds was compared with that of untreated infected cells and reference drugs (DS stands for dextran sulfate and NEV stands for nevirapine).\nTZM-bl cells (1 × 10^4 cells/well) were seeded in 96-well plates and grown overnight to permit adherence prior to treatment and viral infection. Cells were next infected with HIV-1 NL4–3 or BaL strains (MOI 0.5 and 0.3, respectively) and incubated at 37 °C. […] Following these criteria, we used the highest possible concentrations with the lowest cytotoxicity. After 25 h, cells were washed with PBS 1× and HIV-1 production was assessed following the LTR-luciferase signal using the britelite plus Reporter Gene Assay System (PerkinElmer, Waltman, MA, USA) according to the manufacturer’s protocol."}, "[1]": {"conditions": "stability constant; cited from earlier work"}, "Tel22": {"tested_on": "Tel22", "assay": "CD melting, telomeric G4 control", "assay_type": "binding", "conditions": "Tel22 4 μM, compound 8 μM, 100 mM KCl", "method": "(§3) All oligonucleotides used in this study were from Sigma-Aldrich (Milan, Italy) (Table S2). For CD analysis, oligonucleotides were diluted to a final concentration of 4 μM in lithium cacodylate buffer (10 mM, pH 7.4) and KCl 100 mM. After the annealing step (95 °C for 5 min), DNA samples were gradually cooled to room temperature and compounds added from stock at final concentration of 8 μM. […] The reported spectrum of each sample represents the average of 2 scans and is baseline-corrected for signal contributions due to the buffer. Observed ellipticities were converted to mean residue ellipticity (θ) = deg × cm^2 × dmol^–1 (mol ellip). For the determination of Tm, spectra were recorded over a temperature range of 20–90 °C, with a temperature increase of 5 °C/min. Tm values were calculated according to the van’t Hoff equation, applied for a two-state transition from a folded to unfolded state, assuming that the heat capacity of the folded and unfolded states are equal."}, "LTR-IV [2]": {"tested_on": "LTR-IV", "assay": "FRET melting assay, LTR-IV G4", "assay_type": "binding, HIV-1", "conditions": "LTR-IV 0.25 μM, compound 0.5 μM, 100 mM KCl", "method": "(§4) FRET assay was performed with FAM (6-carboxyfluorescein) 5′-end- and Tamra (6-carboxytetramethylrhodamine) 3′-end-labeled oligonucleotides (Table S1). Fluorescence melting curves were determined with a LightCycler II (Roche) real-time PCR machine, using a total reaction volume of 20 μL, with 0.25 μM tagged oligonucleotide in a buffer containing 10 mM lithium cacodylate pH 7.4 with 100 mM KCl, in the presence or absence of 0.5 μM NDI–tetraazacycloalkane conjugate. After a first equilibration step at 30 °C during 2 min, a stepwise increase of 1 °C every minute for 65 cycles to reach 95 °C was performed and measurements were made after each cycle with excitation at 470 nm and detection at 530 nm. Final analysis of the data was carried out using Excel and Sigma Plot software. Oligonucleotides melting was monitored by observing emission of FAM, which was normalized between 0 and 1: Tm was defined as the temperature at which the normalized emission is 0.5. Tm values were mean of 2–3 experiments and ΔTm was calculated as the difference Tm in the presence and absence of the compound."}, "dsDNA": {"tested_on": "dsDNA", "assay": "FRET melting assay, dsDNA control", "assay_type": "binding", "conditions": "dsDNA 0.25 μM, compound 0.5 μM, 100 mM KCl", "method": "as §4"}, "[3]": {"assay": "MTT cytotoxicity assay on uninfected cells", "assay_type": "cell-based", "conditions": "human, uninfected TZM-bl", "method": "as §1, §2"}, "LTR-III [4]": {"tested_on": "LTR-III", "assay": "CD melting, LTR-III G4", "assay_type": "binding, HIV-1", "conditions": "LTR-III 4 μM, compound 8 μM, 100 mM KCl", "method": "as §3"}, "F21T": {"tested_on": "F21T", "assay_type": "binding", "conditions": "F21T 0.25 μM, compound 0.5 μM, 100 mM KCl", "method": "as §4"}, "LTR-IV [5]": {"tested_on": "LTR-IV", "assay": "CD melting, LTR-IV G4", "assay_type": "binding, HIV-1", "conditions": "LTR-IV 4 μM, compound 8 μM, 100 mM KCl", "method": "as §3"}, "HIV-1 R5 strain (BaL)": {"tested_on": "HIV-1 R5 strain (BaL)", "assay": "microbe, parasite or virus in culture", "assay_type": "cell-based", "conditions": "TZM-bl; for IC50: Human immunodeficiency virus 1, BAL, R5 strain, MOI 0.3", "method": "(§5) We next tested the antiviral activity of the NDI–tetraazacycloalkane conjugates in TZM-bl cells. Cells were infected with HIV-1 NL4–3 or BaL, two strains with different cell tropism due to the different coreceptors that are bound by the virus to get access into the cell: HIV-1 NL4–3 exploits the CXCR4 coreceptor (X4 strain), while HIV-1 BaL exploits the CCR5 coreceptor (R5 strain). Compounds were administered at the time of infection or 2 h post infection, and the antiviral activity was evaluated 24 and 48 h post infection. Cytotoxicity was tested in parallel on uninfected cells to assess compound cytotoxicity.\n(§6) Cytotoxicity of tested compounds was performed in parallel to antiviral and reporter assays by MTT. […] The selectivity index (SI) is the relative effectiveness of the tested compound in inhibiting viral replication compared to inducing cell death (CC50 value/IC50 value). […] IC50 and CC50 values were calculated by using a nonlinear regression model.\n(§7) HIV-1 infectivity was measured using the TZM-bl reporter cell line (obtained through the NIH AIDS Reagent Program, Division of AIDS, NIAID, NIH: TZM-bl cells (catalog no. 8129) from Dr. John C. Kappes, and Dr. Xiaoyun Wu). TZM-bl is a HeLa cell line stably expressing large amounts of CD4 and CCR5, constitutively expressing CXCR4 and containing integrated copies of the luciferase and β-galactosidase genes under the control of the HIV-1 promoter. TZM-bl were grown in DMEM supplemented with 10% FBS. Cells (1 × 10^4 cells/well) were seeded in 96-well plates and grown overnight to permit adherence prior to treatment and viral infection. Cells were next infected with HIV-1 NL4–3 strain or BaL strain at a MOI of respectively 0.5 and 0.3 for 1 h at 37 °C, treated with serial dilutions of tested compounds, and incubated at 37 °C. MOI values had been optimized in previous in-house experiments in order to obtain a well detectable virus release but avoid a virus-induced cytopathic effect. Compounds were reconstituted in DMSO, and dilutions were made in cell medium to maintain the same percentage of DMSO in all dilutions. Untreated cells were treated with the same solvent. After 24 or 48 h, cells were washed with PBS 1× and HIV-1 production was assessed following the LTR-luciferase signal using the britelite plus Reporter Gene Assay System (PerkinElmer, Waltman, MA, USA) according to the manufacturer’s protocol."}, "HIV-1 X4 strain (NL4-3)": {"tested_on": "HIV-1 X4 strain (NL4-3)", "assay": "microbe, parasite or virus in culture", "assay_type": "cell-based", "conditions": "for IC50: Human immunodeficiency virus 1, NL43, TZM-bl, X4 strain, MOI 0.5", "method": "as §5, §6, §7"}, "LTR-III [6]": {"tested_on": "LTR-III", "assay": "FRET melting assay, LTR-III G4", "assay_type": "binding, HIV-1", "conditions": "LTR-III 0.25 μM, compound 0.5 μM, 100 mM KCl", "method": "as §4"}, "T-tropic HIV": {"tested_on": "T-tropic HIV", "conditions": "cited from earlier work"}, "[7]": {"conditions": "administration 0 hpi, evaluation 24 hpi"}, "[8]": {"conditions": "administration 2 hpi, evaluation 24 hpi"}, "[9]": {"conditions": "administration 2 hpi, evaluation 48 hpi"}}, "note": "Structures can show the parent of a compound that is named as a salt."}
{"molecule": "CN(C)CCCNc1cc2c3c(c(NCCCCCC(=O)O)cc4c3c1C(=O)N(CCCN(C)C)C4=O)C(=O)N(CCCN(C)C)C2=O", "note": "[parental NDI]", "values": [{"measurement": "cytotoxicity (in words)", "setting": "TZM-bl cells; TZM-bl, 24 h, Figure S11", "value": "highly cytotoxic"}]}
{"molecule": "Cc1ccnc2c1NC(=O)c1cccnc1N2C1CC1", "note": "[nevirapine]", "values": [{"measurement": "time post infection up to which the control drug is active", "setting": "HIV-1 X4 strain (NL4–3)", "value": "3 to 4", "unit": "h"}]}
{"molecule": "C1CNCCNCCNCCNC1", "note": "[[13]aneN4]", "values": [{"measurement": "log Ka for Cu^2+", "setting": "[1]", "value": 24.41}]}
{"molecule": "C1CNCCNCCNCCN1", "note": "[Cyclen]", "values": [{"measurement": "log Ka toward Cu^2+", "setting": "[1]", "value": 23.29}]}
{"molecule": "dextran sulfate", "values": [{"measurement": "time post infection up to which the control drug is active", "setting": "HIV-1 X4 strain (NL4–3)", "value": "active at the time of infection only"}]}
{"molecule": "CN(C)CCCNc1cc2c3c(c(NCCCCCC(=O)OCC4CNCCCNCCNCCN4)cc4c3c1C(=O)N(CCCN(C)C)C4=O)C(=O)N(CCCN(C)C)C2=O", "note": "(stereo not shown) [compound 5]", "values": [{"measurement": "Tm K^+ 100 mM + compound (CD)", "setting": "Tel22", "value": "60.9 ± 0.3", "unit": "°C"}, {"measurement": "ΔTm (CD)", "setting": "Tel22", "value": "–5.9 °C"}, {"measurement": "Tm K^+ 100 mM + compound (FRET)", "setting": "LTR-IV [2]", "value": "73.9 ± 0.6", "unit": "°C"}, {"measurement": "ΔTm (FRET)", "setting": "LTR-IV [2]", "value": 15.2, "unit": "°C"}, {"measurement": "Tm K^+ 100 mM + compound (FRET)", "setting": "dsDNA", "value": "65.0 ± 0.2", "unit": "°C"}, {"measurement": "ΔTm (FRET)", "setting": "dsDNA", "value": 0.8, "unit": "°C"}, {"measurement": "CC50 at 24 h", "setting": "[3]; parallel to R5, administration 2 hpi, evaluation 24 hpi", "value": "> 25", "unit": "µM"}, {"measurement": "CC50 at 48 h", "setting": "[3]; parallel to X4, administration 0 hpi, evaluation 48 hpi", "value": "> 25", "unit": "µM"}, {"measurement": "CC50", "setting": "TZM-bl cells; parallel to R5, administration 0 hpi, evaluation 24 hpi", "value": "> 25", "unit": "µM"}, {"measurement": "CC50", "setting": "TZM-bl cells; parallel to R5, administration 0 hpi, evaluation 48 hpi", "value": "> 25", "unit": "µM"}, {"measurement": "CC50", "setting": "TZM-bl cells; parallel to R5, administration 2 hpi, evaluation 48 hpi", "value": "> 25", "unit": "µM"}, {"measurement": "CC50", "setting": "TZM-bl cells; parallel to X4, administration 0 hpi, evaluation 24 hpi", "value": "> 25", "unit": "µM"}, {"measurement": "CC50", "setting": "TZM-bl cells; parallel to X4, administration 2 hpi, evaluation 24 hpi", "value": "> 25", "unit": "µM"}, {"measurement": "CC50", "setting": "TZM-bl cells; parallel to X4, administration 2 hpi, evaluation 48 hpi", "value": "> 25", "unit": "µM"}, {"measurement": "Tm K^+ 100 mM + compound (CD)", "setting": "LTR-III [4]", "value": "78.6 ± 0.5", "unit": "°C"}, {"measurement": "ΔTm (CD)", "setting": "LTR-III [4]", "value": 10.4, "unit": "°C"}, {"measurement": "Tm K^+ 100 mM + compound (FRET)", "setting": "F21T", "value": "66.6 ± 0.1", "unit": "°C"}, {"measurement": "ΔTm (FRET)", "setting": "F21T", "value": 2.2, "unit": "°C"}, {"measurement": "Tm K^+ 100 mM + compound (CD)", "setting": "LTR-IV [5]", "value": "71.6 ± 0.4", "unit": "°C"}, {"measurement": "ΔTm (CD)", "setting": "LTR-IV [5]", "value": 21.2, "unit": "°C"}, {"measurement": "IC50", "setting": "HIV-1 R5 strain (BaL); [7]", "value": "> 25", "unit": "µM"}, {"measurement": "IC50", "setting": "HIV-1 R5 strain (BaL); [8]", "value": "> 25", "unit": "µM"}, {"measurement": "IC50", "setting": "HIV-1 R5 strain (BaL); [9]", "value": "16.6 ± 1.33", "unit": "µM"}, {"measurement": "IC50", "setting": "HIV-1 X4 strain (NL4-3); [7]", "value": "17.8 ± 0.94", "unit": "µM"}, {"measurement": "IC50", "setting": "HIV-1 X4 strain (NL4-3); administration 0 hpi, evaluation 48 hpi", "value": "1.86 ± 0.49", "unit": "µM"}, {"measurement": "IC50", "setting": "HIV-1 X4 strain (NL4-3); [8]", "value": "12.1 ± 1.02", "unit": "µM"}, {"measurement": "IC50", "setting": "HIV-1 X4 strain (NL4-3); [9]", "value": "1.82 ± 0.65", "unit": "µM"}, {"measurement": "Tm K^+ 100 mM + compound (FRET)", "setting": "LTR-III [6]", "value": "77.7 ± 0.1", "unit": "°C"}, {"measurement": "ΔTm (FRET)", "setting": "LTR-III [6]", "value": 12.5, "unit": "°C"}]}
{"molecule": "c1cc(CN2CCCNCCNCCCNCC2)ccc1CN1CCCNCCNCCCNCC1", "note": "[AMD3100, 1,1′-[1,4-phenylenebis(methylene)]-bis-1,4,8,11-tetraazacyclotetradecane octahydrochloride dehydrate, reference compound]", "values": [{"measurement": "concentration preventing replication of T-tropic HIV (in words)", "setting": "T-tropic HIV", "value": "low nanomolar concentrations"}, {"measurement": "antiviral activity (in words)", "setting": "HIV-1 R5 strain (BaL); BaL strain, Figure S10", "value": "inactive"}, {"measurement": "antiviral activity (in words)", "setting": "HIV-1 X4 strain (NL4-3); pNL4.3 strain, TZM-bl, Figure S10", "value": "excellent activity"}]}
